Assay results reported in patent US11879140B2, “P21 mRNA targeting DNAzymes” (1E Therapeutics Ltd., priority 2020, dated 2024).

What was measured:
[1] = test system: senescent epithelial kidney cells (REC); assay: Viability assay on REC cells; format: cell-based, human; conditions: FIG. 6D
Protocol: (§1) Human IMR-90, BJ, WI-38 fibroblasts and REC epithelial cells were obtained from ATCC and grown at 5% oxygen. IMR-90 and REC cells were maintained in DMEM medium comprising 100 units per ml of penicillin, […] of streptomycin and 10% fetal bovine serum. BJ and WI-38 cells were maintained in EMEM medium comprising 100 units per ml of penicillin, […] of streptomycin, 10% fetal bovine serum, 1% Pyruvate, 1% L-Glutamine, mLFs were isolated according to standard procedures [Seluanov, A., et al. J Vis Exp (2010) (44):2033] and grown at 5% oxygen. Cells were maintained in EMEM medium comprising 100 units per ml of penicillin, […] of streptomycin and 15% fetal bovine serum.
(§2) DNA damage induced senescence (DIS) was induced by etoposide treatment (E1383, Sigma) at a concentration of […] for IMR-90, BJ, and WI-38, 16 μM for mLF and 12.5 μM for REC for a duration of 48 hours. Cells acquired the senescence phenotype 7 days post treatment (determined by SA-beta-gal staining).
(§3) Primary target cells (IMR-90, BJ, […]) were plated in 24-well plates at 100,000 cells per well. Cells were transfected with different concentrations of DNAzymes (as depicted in Table 2, below) using Lipofectamine™ 2000 (Invitrogen) according to manufacturer instructions. […]

[2] = test system: senescent human IMR-90 fibroblast cells; format: cell-based; conditions: increasing concentrations (FIGS. 6A-C, 12A-C)
Protocol: as §1, §2
Oncogene Induced Senescence (OIS) was induced by means of retroviral infection with H-RasG12 (pLNCX2) at 5% oxygen. Retroviruses were packaged, and infections were performed as described below.
Replicative Induced Senescence (RIS) was induced by long-term passaging of the cells in tissue culture. Cells acquired the senescence phenotype after 40 population doublings.
Primary target cells (IMR-90, BJ, […]) were plated in 24-well plates at 100,000 cells per well. Cells were transfected with different concentrations of DNAzymes (as depicted in Table 2, below) using Lipofectamine™ 2000 (Invitrogen) according to manufacturer instructions. The percentage of survival was determined based on quantification of remaining adherent cells using PrestoBlue® reagent (A13262, Life Technologies Ltd.) relative to Lipofectamine™ only control and compared to Scramble DNAzyme (Dz_Scramble) [Scramble Arm (Scr A) sequence: ATCTTCCTFggctagctacaacgaCGCCTCTCC, SEQ ID NO: 5, or Scramble catalytic core (Scr B) sequence: AGGAGAACAacagtaactggcgacGGGATGAGG, SEQ ID NO: 86] treated cells, 3-6 days following transfection.

[3] = test system: human p21 mRNA; assay: In vitro cleavage assay of human p21 mRNA; format: biochemical; conditions: in vitro cleavage of p21 mRNA (SEQ ID NO: 1); RNA substrate 500 nM, 37° C. 60 min, agarose gel
Source text: Total RNA was isolates from senescent IMR-90 cells using Nucleospin® RNA kit (Macherey-Nagel™). cDNA was synthesized with gene-specific reverse primers using M-MLV Reverse Transcriptase (Promega), according to the manufacturer's protocol. To generate template for in vitro transcription (IVT) reaction, the cDNA was PCR amplified using KAPA Taq EXtra HotStart® ReadyMix™ PCR Kit (R&D). PCR product was run on 1.5% agarose TAE gel, the correct band size was cut and DNA was cleaned using Wizard® SV Gel and PCR Clean-Up System kit (Promega). IVT was performed using HiScribe™ T7 High Yield RNA Synthesis Kit (NEB). Samples were then treated with DNase I (New England Biolabs) and incubated for 15 minutes at 37° C. IVT product was run on 1.5% agarose TBE gel, the correct band size was cut and RNA was cleaned using QIAquick® Gel Extraction Kit (Qiagen). See primer sequences in Table 1, below.
RNA substrate was diluted with Molecular Biology Grade Water (Biological Industries) and used in in vitro cleavage assay. A 20 μl reaction system comprising RNA substrate (final concentration 500 nM), 2 μl 10× reaction buffer (50 mM Tris-HCl pH 7.4, 100 mM NaCl, 10 mM MgCl2) and 1 μl DNAzyme (10 μM) (as depicted in Table 2, below) was mixed. Reactions were incubated at 37° C. for 60 min. 2×RNA L.D. (Thermo Fisher) was added to each sample. Samples were heated at 70° C. for 30 sec, centrifuged and loaded onto 1.5% agarose TBE gels. Quantification was performed using Image Lab software (Bio Rad).

[4] = test system: senescent lung fibroblasts (WI-38); assay: Viability assay on WI-38 cells; format: cell-based, human; conditions: FIG. 6D
Protocol: as §1, §2, §3

[5] = test system: mouse p21 mRNA; assay: In vitro cleavage of mouse p21 mRNA; format: biochemical; conditions: in vitro cleavage of mouse p21 mRNA (SEQ ID NO: 3)
[6] = test system: Bleomycin-induced pulmonary fibrosis model mice; assay: Bleomycin-induced idiopathic pulmonary fibrosis (IPF) mouse model; format: in vivo
Protocol: Total RNA from lung samples (post-caval lobe) was extracted using RNAiso (Takara Bio. Japan) according to manufacturer protocol. Reverse transcription was performed using MMLV-RT (Invitrogen). Real-time PCR was performed using TB Green™ Premix Ex Taq™ II (Takara Bio). To calculate the relative mRNA expression level, the expression of each gene (Collagen Type 1) were be normalized to that of reference gene 36B4 (gene symbol: Rplp0).
C57/B6 mice were induced to develop pulmonary fibrosis by a single intra-tracheal administration of Bleomycin hydrochloride (Nippon Kayaku. Japan) in saline at a dose of 3.0 mg/kg, in a volume of 50 μL per animal using Microsprayer® (Penn-Century. USA). Mice that served as the Sham control group were intratracheally administered with saline, instead of the Bleomycin. Mice were initially randomized based on body weight before Bleomycin instillation. At second randomization, Bleomycin-induced pulmonary fibrosis model mice were divided based on the body weight changes on the day before the start of treatment at Day 7. DNAzyme treatment was performed intranasally with 200 μg of DNAzyme resuspended in 50 μL PBS per treatment. PBS intra-nasal treatment served as control. Mice were treated daily following Bleomycin instillation with either DNAzyme or control from day 1 to 20 (prophylactic regimen) or from day 7 to 20 (therapeutic regimen). Body weight, viability, clinical signs and behavior were monitored daily. Mice were sacrificed three weeks following Bleomycin instillation.
Right lung tissues prefixed in 10% neutral buffered formalin were embedded in paraffin and sectioned at 4 μm.
For immunohistochemistry (IHC) staining, sections were subjected to heat induced epitope retrieval (HIER) Following HIER, the sections were incubated rabbit monoclonal anti-p21 antibody [EPR18021] (Abcam) 1:2000 or rabbit monoclonal anti-α-SMA antibody [EPR5368] (Abcam) 1:2000. Section bound primary antibody was detected employing horseradish peroxidase labeled anti-rabbit IgG polymeric reagent.
For Masson's Trichrome staining, the sections were deparaffinized and rehydrated, followed by re-fixation with Bouin's solution for 15 minutes. The sections were stained in Weigert's iron Hematoxylin working solution (Sigma-Aldrich), Biebrich scarlet-Acid fuchsin solution (Sigma-Aldrich), Phosphotungstic/phosphomolybdic Acid solution, Aniline blue solution and 1% Acetic Acid solution (Sigma-Aldrich). For quantitative analysis of lung fibrosis area, bright field images of Masson's Trichrome-stained sections were randomly captured using a digital camera (DFC295; Leica, Germany) at 100-fold magnification, and the subpleural regions in 20 fields/mouse were evaluated according to the criteria for grading lung fibrosis [Ashcroft. T. et al., Simple method of estimating severity of pulmonary fibrosis on a numerical scale. J Clin. Pathol. (1988) 41: 467-470]. All sections were blindly analyzed by an experimenter.
Digital images were analyzed by a custom MATLAB algorithm, using Image Processing Toolbox. First, a binary image was calculated, in order to distinguish background pixels from the lobe pixels. Next, a morphological close operation on the image was preformed, fill of the holes, and extraction of the largest connected component, in order to detect all lobe area, including alveoli. The density of the lobe was defined by the ratio between the stained pixels to the total pixels in the lobe area. For Masson's Trichrome staining, blue pixels were detected and separated from purple staining by specifying RGB (red, green, and blue) constraints. The Collagen percentage in each image was defined by the ratio between the blue pixels to the total pixels in the lobe area.
For p21 staining, an image segmentation algorithm was performed to identify all nuclei in image. Next, cells positive to p21 were detected by RGB and size constraints. […]

[7] = test system: p21 mRNA; assay: Quantitative RT-PCR of p21 mRNA in senescent cells; format: cell-based, human; conditions: over 24 hours following treatment, 2000 nM (FIG. 5D)
Protocol: Total RNA was extracted from IMR-90 cells using NucleoSpin® RNA (Macherey-Nagel™), according to the manufacturer protocol. Complementary DNA was prepared using the M-MLV Reverse Transcriptase (Promega), according to the manufacturer protocol. Quantitative real-time PCR was performed using the SYBR Green PCR master-mix (Applied Biosystems) on a CFX96 Real-Time PCR System (Bio Rad). See primer sequences in Table 1, above.

Substance | elimination of senescent but not growing REC cells [1] | selectivity of killing, senescent versus growing IMR-90 cells [2] | Validated cleavage [3] | elimination of senescent but not growing WI-38 cells [4] | Validated cleavage [5] | oxygen saturation in the blood ([6]; FIG. 14A) | number of p21 expressing cells in the lung tissue ([6]; both treatment regimens, IHC day 21 (FIG. 14B)) | Hydroxyproline levels ([6]; left lung, day 21, therapeutic and preventative (FIG. 14E)) | Ashcroft fibrosis score ([6]; lung sections day 21, compared to bleomycin treated group, p=0.0206 (FIG. 10B)) | survival rate ([6]; over 21 days, both therapeutic and preventative regimens, vehicle group 75% (FIG. 10D)) | expression levels of senescence related genes and SASP factors ([6]; post caval lobe, day 21 (FIG. 14C)) | lung tissue density ([6]; therapeutic and preventive groups (FIG. 14F)) | collagen levels (Masson's Trichrome) ([6]; therapeutic and preventive regimens (FIG. 14D)) | p21 mRNA knockdown [7]
DNAzyme 1114: SEQ ID NO: 40: AGGAGAACAggctagctacaacgaGGGAUGAGG (DNA AGGAGAACAGGCTAGCTACAACGAGGGAUGAGG; DNA, backbone, methylation of C and T or U not given here) | effectively eliminated | maintained over a large range of concentrations | validated for mediating cleavage of p21 mRNA | effectively eliminated |  |  |  |  |  |  |  |  |  | 
Dz_639: targets mouse p21; SEQ ID NO: 85: GGCCGAAGAggctagctacaacgaGGGGAAGAG; used in IPF model (GGCCGAAGAGGCTAGCTACAACGAGGGGAAGAG; chemistry not given here) |  |  |  |  | effective | significantly elevated | reduction | reduced | lower | 100% | significantly reduced | reduced | significantly reduced | 
DNAzyme 985: SEQ ID NO: 36: GGGGGCGGtccgagccggacgaAGGGTATGT (GGGGGCGGTCCGAGCCGGACGAAGGGTATGT; DNA, backbone and methylation of C not given here) |  | wide range of selective doses | validated for mediating cleavage of p21 mRNA |  |  |  |  |  |  |  |  |  |  | 73%
